This series can be described thus: Adverse events during the observation period (12 hours after ticagrelor LD). Format: in vivo, human (patients with myocardial infarction). From the text: Between November 2015 and January 2017, a total of 73 consecutive AMI patients (49 STEMI and 24 NSTEMI) were enrolled. The recruitment continued until the minimum required number of patients were enrolled in the less numerous group (NSTEMI). There were no differences in the baseline characteristics between the two groups, except higher mean left ventricle ejection fraction seen in NSTEMI patients at discharge (Table 1). Of note, as expected numerically greater proportion of STEMI patients were treated with morphine, but this difference was statistically insignificant. Adverse events during the observation period (12 hours after ticagrelor LD) were sporadic and mild (STEMI vs. NSTEMI: Thrombolysis in Myocardial Infarction minimal bleeding 6.1% vs. 8.3%, p = 0.92; dyspnea 2.0% vs. 4.2%, p = 0.83; vomiting 4.1% vs. 4.2%, p = 0.56). […]
Ludwika Rydygiera w Bydgoszczy (study
PLATO trial, deﬁnite or probable stent thrombosis approval reference number: KB 617/2015). […]
Thrombolysis In Myocardial Infarction (TIMI) criteria, still being collected, currently no additional data are available besides given in dyspnoea adverse events according to criteria used in the submitted study protocol. […]
Postepy […]
trial is expected to be the ﬁrst study to elucidateKardiol Interwencyjnej 2015;11:259–80. whether STEMI is associated with poorer absorption and 8. Navarese EP, Buffon A, Kozinski M, et al. A critical overview on ticagrelor in acute coronary syndromes. QJM 2013;106:105–15. subsequently weaker antiplatelet action of ticagrelor in 9. Adamski P, Koziński M, Ostrowska M, et al. Overview of pleiotropic comparison with NSTEMI. effects of platelet P2Y12 receptor inhibitors. Thromb Haemost […]
1Department of Principles of Clinical Medicine, Collegium Medicum, Nicolaus Drug Metab Dispos 2010;38:1514–21.
Copernicus University, Bydgoszcz, Poland 11. Husted S, Emanuelsson H, Heptinstall S, et al. Pharmacodynamics, 2Department of Pharmacology and Therapy, Collegium Medicum, Nicolaus pharmacokinetics, and safety of the oral reversible P2Y12 antagonist AZD6140 with aspirin in patients with atherosclerosis: a double-blind
Copernicus University, Bydgoszcz, Poland comparison to clopidogrel with aspirin. Eur Heart J 3Department of Cardiology and Internal Medicine, Collegium Medicum, 2006;27:1038–47.
Nicolaus Copernicus University, Bydgoszcz, Poland 12. Varenhorst C, Eriksson N, Johansson Å, et al. Effect of genetic 4Department of Theoretical Foundations of Biomedical Science and Medical variations on ticagrelor plasma levels and clinical outcomes.
Informatics, Collegium Medicum, Nicolaus Copernicus University, Bydgoszcz, Eur Heart J 2015;36:1901–12.
Poland 13. Teng R, Mitchell P, Butler K. Effect of age and gender on 5Department of Laboratory Medicine, Collegium Medicum, Nicolaus pharmacokinetics and pharmacodynamics of a single ticagrelor dose in healthy individuals. Eur J Clin Pharmacol 2012;68:1175–82.
Copernicus University, Bydgoszcz, Poland 14. Teng R, Mitchell PD, Butler K. Lack of significant food effect on the 6Department of Medicinal Chemistry, Collegium Medicum, Nicolaus pharmacokinetics of ticagrelor in healthy volunteers. J Clin Pharm Copernicus University, Bydgoszcz, Poland Ther 2012;37:4648.– […]

For `CCCSc1nc(N[C@@H]2C[C@H]2c2ccc(F)c(F)c2)c2nnn([C@@H]3C[C@H](OCCO)[C@@H](O)[C@H]3O)c2n1` [ticagrelor], under “NSTEMI patients”, the “Thrombolysis in Myocardial Infarction minimal bleeding” value is given as 8.3%, the dyspnea was 4.2% and the vomiting worked out at 4.2%. Under “STEMI patients”, the “Thrombolysis in Myocardial Infarction minimal bleeding” value was 6.1%, the dyspnea was 2.0% and the vomiting stood at 4.1%.
